Assay results as given in paper PMC10729961, “Putative purine nucleoside interacting residues in the malaria parasite purine uptake transporter PfENT1 are critical for transporter function” (PLOS ONE, 2023).

Assays:
Test in all cases: [3H]adenosine uptake assay, competition with cold uridine
Assay type in all cases: cell-based
PfENT1 A134C = target: T1, PfENT1 A134C (Plasmodium falciparum, UniProt Q8IDM6, A134C)
T1 construct: expressed in transfected cells; host or cells: purine auxotrophic yeast (ade2Δ, fui1Δ), pCM189 episomal plasmid
Method: (§1) The radiolabeled uptake assay measures the ability of an unlabeled purine or pyrimidine substrate to inhibit the uptake of radiolabeled substrate into yeast via PfENT1 as previously described. Yeast strains containing PfENT1 (mutant or WT) were grown overnight in SDM media to a final OD600 between 0.2 and 0.5. Purine auxotrophic yeast used as a negative control were grown in YPD media. Yeast were spun down and washed three times with 15 mL phosphate buffered saline (PBS; 137 mM NaCl, 2.7 mM KCl, 10 mM KH2PO4, 10 mM Na2HPO4, pH 7.4). The final volume of yeast in PBS varied but it was diluted to a final OD600 = 0.2. […] For the dilution series, unlabeled purine/pyrimidine (Fischer Scientific Cat. #12-565-501) with a starting concentration of 25 mM was serially diluted 1:3 in PBS for a final concentration range of 3.28 nM to 6.25 mM. Yeast were incubated with radioactive substrate and the unlabeled purine/pyrimidine for 15 min. […] This ensured that competition only occurred at the transporter and not at cytoplasmic metabolic enzymes, because those are different for purines and pyrimidines. For determination of minimal and maximal uptake, yeast strains were incubated without radioactivity or with radioactivity but no cold substrate competition, respectively. […] Mats were allowed to air dry and sealed in sample bags with 5 mL of BetaPlate Scint scintillant cocktail (Perkin Elmer Cat. #1205–4401). The amount of radioactivity in each well was measured by liquid scintillation counting using a 1450 MicroBeta TriLux (Perkin Elmer). The counts per minute (cpm) were recorded and technical triplicates were averaged. IC50 values were calculated, and statistical analysis was performed using GraphPad/Prism9 software. Each experiment was repeated at least three times on separate days.
(§2) Statistical significance was calculated using one-way analysis of variance (ANOVA) with GraphPad/Prism9 software. IC50 values were calculated using the non-linear regression dose-response inhibition log(inhibitor) vs normalized response program. Cpm data was background subtracted by the cpm in yeast expressing WT PfENT1 in cold purine/pyrimidine. Data was normalized to the highest value for each mutant.

PfENT1 V52C = target: T2, PfENT1 V52C (Plasmodium falciparum, UniProt Q8IDM6, V52C)
T2 construct: expressed in transfected cells; host or cells: purine auxotrophic yeast (ade2Δ, fui1Δ), pCM189 episomal plasmid
Method: as §1, §2

PfENT1 N51C = target: T3, PfENT1 N51C (Plasmodium falciparum, UniProt Q8IDM6, N51C)
T3 construct: expressed in transfected cells; host or cells: purine auxotrophic yeast (ade2Δ, fui1Δ), pCM189 episomal plasmid
Method: as §1, §2

WT PfENT1 = target: T4, WT PfENT1 (Plasmodium falciparum, UniProt Q8IDM6)
T4 construct: expressed in transfected cells; host or cells: purine auxotrophic yeast (ade2Δ, fui1Δ), pCM189 episomal plasmid
Method: as §1, §2

PfENT1 L289C = target: T5, PfENT1 L289C (Plasmodium falciparum, UniProt Q8IDM6, L289C)
T5 construct: expressed in transfected cells; host or cells: purine auxotrophic Saccharomyces cerevisiae (ade2Δ, fui1Δ), pCM189 episomal plasmid
Method: as §1, §2

PfENT1 F288C = target: T6, PfENT1 F288C (Plasmodium falciparum, UniProt Q8IDM6, F288C)
T6 construct: expressed in transfected cells; host or cells: purine auxotrophic Saccharomyces cerevisiae (ade2Δ, fui1Δ), pCM189 episomal plasmid
Method: as §1, §2

PfENT1 S49C = target: T7, PfENT1 S49C (Plasmodium falciparum, UniProt Q8IDM6, S49C)
T7 construct: expressed in transfected cells; host or cells: purine auxotrophic yeast (ade2Δ, fui1Δ), pCM189 episomal plasmid
Method: as §1, §2

PfENT1 Q135C = target: T8, PfENT1 Q135C (Plasmodium falciparum, UniProt Q8IDM6, Q135C); details: cold uridine vs [3H]adenosine uptake, 15 min
T8 construct: expressed in transfected cells; host or cells: purine auxotrophic yeast (ade2Δ, fui1Δ), pCM189 episomal plasmid
Method: as §1, §2

[1] = tested on: purine auxotrophic yeast (ade2Δ, fui1Δ); details: ade2Δ strain; cold uridine vs [3H]adenosine uptake, 15 min
Method: as §1, §2

PfENT1 S290C = target: T9, PfENT1 S290C (Plasmodium falciparum, UniProt Q8IDM6, S290C); details: cold uridine vs [3H]adenosine uptake, 15 min
T9 construct: expressed in transfected cells; host or cells: purine auxotrophic Saccharomyces cerevisiae (ade2Δ, fui1Δ), pCM189 episomal plasmid
Method: as §1, §2

PfENT1 R291C = target: T10, PfENT1 R291C (Plasmodium falciparum, UniProt Q8IDM6, R291C); details: cold uridine vs [3H]adenosine uptake, 15 min
T10 construct: expressed in transfected cells; host or cells: purine auxotrophic Saccharomyces cerevisiae (ade2Δ, fui1Δ), pCM189 episomal plasmid
Method: as §1, §2

PfENT1 S48C = target: T11, PfENT1 S48C (Plasmodium falciparum, UniProt Q8IDM6, S48C)
T11 construct: expressed in transfected cells; host or cells: purine auxotrophic yeast (ade2Δ, fui1Δ), pCM189 episomal plasmid
Method: as §1, §2

PfENT1 F286C = target: T12, PfENT1 F286C (Plasmodium falciparum, UniProt Q8IDM6, F286C)
T12 construct: expressed in transfected cells; host or cells: purine auxotrophic yeast (ade2Δ, fui1Δ), pCM189 episomal plasmid
Method: as §1, §2

PfENT1 W53C = target: T13, PfENT1 W53C (Plasmodium falciparum, UniProt Q8IDM6, W53C); details: cold uridine vs [3H]adenosine uptake, 15 min
T13 construct: expressed in transfected cells; host or cells: purine auxotrophic yeast (ade2Δ, fui1Δ), pCM189 episomal plasmid
Method: as §1, §2

PfENT1 D287C = target: T14, PfENT1 D287C (Plasmodium falciparum, UniProt Q8IDM6, D287C); details: cold uridine vs [3H]adenosine uptake, 15 min
T14 construct: expressed in transfected cells; host or cells: purine auxotrophic Saccharomyces cerevisiae (ade2Δ, fui1Δ), pCM189 episomal plasmid
Method: as §1, §2

PfENT1 L50C = target: T15, PfENT1 L50C (Plasmodium falciparum, UniProt Q8IDM6, L50C); details: cold uridine vs [3H]adenosine uptake, 15 min
T15 construct: expressed in transfected cells; host or cells: purine auxotrophic yeast (ade2Δ, fui1Δ), pCM189 episomal plasmid
Method: as §1, §2

PfENT1 I137C = target: T16, PfENT1 I137C (Plasmodium falciparum, UniProt Q8IDM6, I137C)
T16 construct: expressed in transfected cells; host or cells: purine auxotrophic yeast (ade2Δ, fui1Δ), pCM189 episomal plasmid
Method: as §1, §2

PfENT1 T136C = target: T17, PfENT1 T136C (Plasmodium falciparum, UniProt Q8IDM6, T136C)
T17 construct: expressed in transfected cells; host or cells: purine auxotrophic yeast (ade2Δ, fui1Δ), pCM189 episomal plasmid
Method: as §1, §2

T11 sequence (Q8IDM6 whole entry S48C): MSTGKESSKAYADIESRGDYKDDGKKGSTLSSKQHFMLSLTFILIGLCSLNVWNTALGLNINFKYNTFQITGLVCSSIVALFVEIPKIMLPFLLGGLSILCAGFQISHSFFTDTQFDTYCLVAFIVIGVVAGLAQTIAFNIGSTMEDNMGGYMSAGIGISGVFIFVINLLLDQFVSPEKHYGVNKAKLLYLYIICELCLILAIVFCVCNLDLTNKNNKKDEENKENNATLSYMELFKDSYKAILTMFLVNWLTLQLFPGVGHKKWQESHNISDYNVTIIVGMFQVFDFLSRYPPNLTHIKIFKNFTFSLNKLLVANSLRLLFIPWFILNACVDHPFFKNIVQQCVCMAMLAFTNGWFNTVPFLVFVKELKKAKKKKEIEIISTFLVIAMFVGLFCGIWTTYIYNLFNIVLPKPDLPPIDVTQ
T3 sequence (Q8IDM6 whole entry N51C): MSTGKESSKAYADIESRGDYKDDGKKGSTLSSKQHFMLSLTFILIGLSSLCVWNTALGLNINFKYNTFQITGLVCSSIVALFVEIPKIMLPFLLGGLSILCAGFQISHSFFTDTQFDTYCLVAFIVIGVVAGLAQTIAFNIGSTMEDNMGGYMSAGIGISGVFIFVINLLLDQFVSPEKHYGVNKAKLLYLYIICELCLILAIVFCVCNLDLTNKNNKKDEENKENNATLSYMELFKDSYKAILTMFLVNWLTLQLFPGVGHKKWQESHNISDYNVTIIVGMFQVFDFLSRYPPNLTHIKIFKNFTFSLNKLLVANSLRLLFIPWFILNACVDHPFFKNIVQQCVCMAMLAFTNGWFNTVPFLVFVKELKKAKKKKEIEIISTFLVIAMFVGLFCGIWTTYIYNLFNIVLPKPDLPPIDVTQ
T7 sequence (Q8IDM6 whole entry S49C): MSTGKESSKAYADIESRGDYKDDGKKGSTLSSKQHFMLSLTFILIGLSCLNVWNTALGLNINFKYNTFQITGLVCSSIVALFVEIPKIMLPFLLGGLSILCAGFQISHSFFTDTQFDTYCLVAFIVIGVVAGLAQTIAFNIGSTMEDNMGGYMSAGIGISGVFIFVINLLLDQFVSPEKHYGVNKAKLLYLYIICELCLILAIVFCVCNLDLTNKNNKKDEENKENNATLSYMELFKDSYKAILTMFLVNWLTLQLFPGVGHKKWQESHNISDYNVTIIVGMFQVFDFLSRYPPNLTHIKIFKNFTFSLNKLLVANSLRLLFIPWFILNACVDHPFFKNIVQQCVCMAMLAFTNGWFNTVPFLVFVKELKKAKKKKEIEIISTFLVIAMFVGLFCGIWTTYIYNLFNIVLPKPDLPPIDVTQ
T12 sequence (Q8IDM6 whole entry F286C): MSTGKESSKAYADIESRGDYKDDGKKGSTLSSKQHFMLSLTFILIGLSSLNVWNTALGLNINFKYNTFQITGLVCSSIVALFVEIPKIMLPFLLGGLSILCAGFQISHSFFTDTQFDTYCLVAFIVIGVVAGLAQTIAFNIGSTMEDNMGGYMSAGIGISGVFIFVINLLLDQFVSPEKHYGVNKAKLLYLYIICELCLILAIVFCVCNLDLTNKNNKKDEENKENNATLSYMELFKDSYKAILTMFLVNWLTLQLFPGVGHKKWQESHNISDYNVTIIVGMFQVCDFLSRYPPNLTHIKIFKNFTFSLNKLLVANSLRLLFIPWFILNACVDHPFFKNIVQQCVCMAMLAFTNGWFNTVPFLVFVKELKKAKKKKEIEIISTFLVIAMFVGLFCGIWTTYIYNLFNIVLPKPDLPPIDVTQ
T5 sequence (Q8IDM6 whole entry L289C): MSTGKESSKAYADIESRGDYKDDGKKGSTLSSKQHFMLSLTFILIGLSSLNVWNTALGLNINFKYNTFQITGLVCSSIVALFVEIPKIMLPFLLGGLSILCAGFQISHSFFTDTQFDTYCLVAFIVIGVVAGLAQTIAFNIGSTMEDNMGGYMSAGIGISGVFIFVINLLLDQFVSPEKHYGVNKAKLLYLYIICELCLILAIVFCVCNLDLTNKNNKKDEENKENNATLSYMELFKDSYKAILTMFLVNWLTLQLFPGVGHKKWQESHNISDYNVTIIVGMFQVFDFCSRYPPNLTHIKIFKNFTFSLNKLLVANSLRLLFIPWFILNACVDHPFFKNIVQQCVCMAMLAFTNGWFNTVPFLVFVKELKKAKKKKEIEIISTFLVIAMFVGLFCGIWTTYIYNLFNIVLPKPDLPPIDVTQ
T6 sequence (Q8IDM6 whole entry F288C): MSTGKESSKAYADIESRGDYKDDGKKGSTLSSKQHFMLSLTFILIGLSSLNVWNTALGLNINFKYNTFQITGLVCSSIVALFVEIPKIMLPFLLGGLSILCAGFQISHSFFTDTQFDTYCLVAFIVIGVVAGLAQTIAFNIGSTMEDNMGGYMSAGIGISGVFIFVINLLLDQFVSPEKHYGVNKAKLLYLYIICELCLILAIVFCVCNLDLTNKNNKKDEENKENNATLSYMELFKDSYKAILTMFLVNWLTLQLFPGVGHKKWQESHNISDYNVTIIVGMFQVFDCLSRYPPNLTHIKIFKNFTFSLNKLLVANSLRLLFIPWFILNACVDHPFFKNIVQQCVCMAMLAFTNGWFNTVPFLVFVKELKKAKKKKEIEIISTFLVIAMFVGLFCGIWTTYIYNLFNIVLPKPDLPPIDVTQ
T16 sequence (Q8IDM6 whole entry I137C): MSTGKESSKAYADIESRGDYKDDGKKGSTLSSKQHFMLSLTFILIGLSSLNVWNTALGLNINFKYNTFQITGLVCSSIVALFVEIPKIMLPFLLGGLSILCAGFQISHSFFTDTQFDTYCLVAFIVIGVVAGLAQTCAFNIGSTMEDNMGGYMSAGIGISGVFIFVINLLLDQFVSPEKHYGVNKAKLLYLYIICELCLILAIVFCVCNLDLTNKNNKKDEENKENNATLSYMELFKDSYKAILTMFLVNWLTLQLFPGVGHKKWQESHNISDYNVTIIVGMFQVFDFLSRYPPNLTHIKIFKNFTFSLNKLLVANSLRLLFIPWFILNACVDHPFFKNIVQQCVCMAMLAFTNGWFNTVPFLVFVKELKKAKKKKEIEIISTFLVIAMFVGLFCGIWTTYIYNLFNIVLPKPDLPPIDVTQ
T17 sequence (Q8IDM6 whole entry T136C): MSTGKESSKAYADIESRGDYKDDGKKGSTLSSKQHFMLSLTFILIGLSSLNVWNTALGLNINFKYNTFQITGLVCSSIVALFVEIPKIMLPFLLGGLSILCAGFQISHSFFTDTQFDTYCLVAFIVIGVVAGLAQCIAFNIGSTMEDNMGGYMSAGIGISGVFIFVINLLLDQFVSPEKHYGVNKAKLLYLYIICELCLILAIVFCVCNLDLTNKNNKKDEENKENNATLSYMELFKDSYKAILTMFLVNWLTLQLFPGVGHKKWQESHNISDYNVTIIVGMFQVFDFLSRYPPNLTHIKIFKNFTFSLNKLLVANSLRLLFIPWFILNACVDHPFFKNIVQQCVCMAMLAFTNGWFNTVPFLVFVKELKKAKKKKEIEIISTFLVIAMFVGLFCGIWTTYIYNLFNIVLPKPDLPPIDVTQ
T1 sequence (Q8IDM6 whole entry A134C): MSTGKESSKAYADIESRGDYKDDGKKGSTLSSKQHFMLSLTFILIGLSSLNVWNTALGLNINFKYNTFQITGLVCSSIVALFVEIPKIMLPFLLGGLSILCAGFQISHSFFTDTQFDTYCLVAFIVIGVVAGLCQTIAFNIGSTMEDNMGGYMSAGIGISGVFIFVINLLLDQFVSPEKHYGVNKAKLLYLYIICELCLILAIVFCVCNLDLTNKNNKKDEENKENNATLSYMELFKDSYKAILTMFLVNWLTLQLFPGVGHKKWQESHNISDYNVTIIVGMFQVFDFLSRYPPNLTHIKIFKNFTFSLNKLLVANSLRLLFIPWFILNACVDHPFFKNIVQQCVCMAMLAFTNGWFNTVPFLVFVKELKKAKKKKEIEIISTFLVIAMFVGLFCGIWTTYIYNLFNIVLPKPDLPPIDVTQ
T2 sequence (Q8IDM6 whole entry V52C): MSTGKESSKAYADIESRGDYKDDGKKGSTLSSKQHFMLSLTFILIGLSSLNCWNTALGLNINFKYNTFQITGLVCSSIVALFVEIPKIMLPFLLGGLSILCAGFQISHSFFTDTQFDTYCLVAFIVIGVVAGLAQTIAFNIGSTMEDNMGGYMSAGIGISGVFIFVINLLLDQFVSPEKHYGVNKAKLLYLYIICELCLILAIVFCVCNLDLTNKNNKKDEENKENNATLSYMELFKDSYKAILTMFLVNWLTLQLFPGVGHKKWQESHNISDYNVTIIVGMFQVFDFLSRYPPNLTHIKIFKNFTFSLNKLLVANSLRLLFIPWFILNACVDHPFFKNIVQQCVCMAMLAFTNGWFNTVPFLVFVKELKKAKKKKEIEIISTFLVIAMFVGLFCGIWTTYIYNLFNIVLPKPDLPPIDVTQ
T13 sequence (Q8IDM6 whole entry W53C): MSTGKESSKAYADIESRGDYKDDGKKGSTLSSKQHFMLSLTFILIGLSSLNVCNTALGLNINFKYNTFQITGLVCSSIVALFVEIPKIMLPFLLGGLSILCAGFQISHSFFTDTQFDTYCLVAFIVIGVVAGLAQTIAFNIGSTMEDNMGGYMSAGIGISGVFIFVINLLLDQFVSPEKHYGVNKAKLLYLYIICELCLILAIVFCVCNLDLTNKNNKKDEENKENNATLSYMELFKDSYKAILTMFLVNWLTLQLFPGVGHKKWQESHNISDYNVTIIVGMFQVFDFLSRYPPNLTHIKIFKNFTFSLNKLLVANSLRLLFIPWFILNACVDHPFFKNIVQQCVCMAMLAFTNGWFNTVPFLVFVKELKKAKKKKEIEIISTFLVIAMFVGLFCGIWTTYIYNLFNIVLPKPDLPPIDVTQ

## O=c1ccn([C@@H]2O[C@H](CO)[C@@H](O)[C@H]2O)c(=O)[nH]1 [Uridine, uridine]
PfENT1 A134C
  IC50: 1020 ± 207 µM
PfENT1 A134C; A134C, ratio of IC50 values
  Mutant/WT Ratio Uridine: 1.02
PfENT1 V52C
  IC50: 2820 ± 1440 µM
PfENT1 V52C; V52C, ratio of IC50 values
  Mutant/WT Ratio Uridine: 2.83
PfENT1 N51C
  IC50: 30.9 ± 1 µM
PfENT1 N51C; N51C, ratio of IC50 values
  Mutant/WT Ratio Uridine: 0.031
WT PfENT1
  IC50: 997 ± 90 µM
PfENT1 L289C
  IC50: 905 ± 164 µM
PfENT1 L289C; L289C, ratio of IC50 values
  Mutant/WT Ratio Uridine: 0.91
PfENT1 F288C
  IC50: 850 ± 138 µM
PfENT1 F288C; F288C, ratio of IC50 values
  Mutant/WT Ratio Uridine: 0.85
PfENT1 S49C
  IC50: 1060 ± 30 µM
PfENT1 S49C; S49C, ratio of IC50 values
  Mutant/WT Ratio Uridine: 1.06
PfENT1 Q135C
  Average IC50 (μM) Uridine: no uptake
[1]
  Average IC50 (μM) Uridine: no uptake
PfENT1 S290C
  Average IC50 (μM) Uridine: no uptake
PfENT1 R291C
  Average IC50 (μM) Uridine: no uptake
PfENT1 S48C
  IC50: 801 ± 46 µM
PfENT1 S48C; S48C, ratio of IC50 values
  Mutant/WT Ratio Uridine: 0.8
PfENT1 F286C
  IC50: 1210 ± 139 µM
PfENT1 F286C; F286C, ratio of IC50 values
  Mutant/WT Ratio Uridine: 1.21
PfENT1 W53C
  Average IC50 (μM) Uridine: no uptake
PfENT1 D287C
  Average IC50 (μM) Uridine: no uptake
PfENT1 L50C
  Average IC50 (μM) Uridine: no uptake
PfENT1 I137C
  IC50: 904 ± 21 µM
PfENT1 I137C; I137C, ratio of IC50 values
  Mutant/WT Ratio Uridine: 0.91
PfENT1 T136C
  IC50: 786 ± 87 µM
PfENT1 T136C; T136C, ratio of IC50 values
  Mutant/WT Ratio Uridine: 0.79
